Source: patent US7109197B2, “N-phenyl-4-(4-pyridyl)-2-pyrimidineamine derivatives” (Syngenta Crop Protection, Inc., priority 2000, dated 2006)
Where two headings read alike, the source gives them in different places.

Tests used:
Puccinia graminis = type: in vivo
Phytophthora infestans = type: in vivo
[1] = Puccinia graminis on wheat cv. Arina, 0.02% active substance spray (residual) or 0.002% soil (systemic), variant not stated

Nc1cc(-c2ccnc(Nc3cccc(Cl)c3)n2)ccn1 [Compound 58]
B1 activity (Puccinia graminis; in vivo): + (key: +: the activity observed in the corresponding test system is 70% or more)

CCNc1cc(-c2ccnc(Nc3cccc(Cl)c3)n2)ccn1 [Compound 60]
B1 activity (Puccinia graminis; in vivo): + (key: +: the activity observed in the corresponding test system is 70% or more)

Clc1cccc(Nc2nccc(-c3ccnc(NCC4CCCO4)c3)n2)c1 (centres unmarked) [Compound 75]
B1 activity (Puccinia graminis; [1]): + (the activity observed in the corresponding test system is 70% or more)

CCC(CO)Nc1cc(-c2ccnc(Nc3cccc(Cl)c3)n2)ccn1 (centres unmarked) [Compound 31]
B2 activity (Phytophthora infestans; Phytophthora infestans on tomato cv. Roter Gnom, 0.02% active substance spray (residual) or 0.002% soil (systemic), variant not stated): + (the activity observed in the corresponding test system is 70% or more)
B1 activity (Puccinia graminis; [1]): + (the activity observed in the corresponding test system is 70% or more)

CC(CO)Nc1cc(-c2ccnc(Nc3cccc(Cl)c3)n2)ccn1 (centres unmarked) [Compound 39]
B1 activity (Puccinia graminis; [1]): + (the activity observed in the corresponding test system is 70% or more)

CC(C)Nc1cc(-c2ccnc(Nc3cccc(Cl)c3)n2)ccn1 [Compound 68]
B1 activity (Puccinia graminis; in vivo): + (key: +: the activity observed in the corresponding test system is 70% or more)

Clc1cccc(Nc2nccc(-c3ccnc(NC4CCOC4)c3)n2)c1 (centres unmarked) [Compound 2]
B1 activity (Puccinia graminis; [1]): + (the activity observed in the corresponding test system is 70% or more)

Clc1cccc(Nc2nccc(-c3ccnc(NCCCOc4ncccn4)c3)n2)c1 [Compound 94]
B1 activity (Puccinia graminis; [1]): + (the activity observed in the corresponding test system is 70% or more)

OCCCNc1cc(-c2ccnc(Nc3cccc(Cl)c3)n2)ccn1 [Compound 46]
B1 activity (Puccinia graminis; [1]): + (the activity observed in the corresponding test system is 70% or more)

CNc1cc(-c2ccnc(Nc3cccc(Cl)c3)n2)ccn1 [Compound 64]
B2 activity (Phytophthora infestans; in vivo): + (key: +: the activity observed in the corresponding test system is 70% or more)
